pKd: −log10 of the molar value.
Assays:
[1] = target: galanin receptors; details: hypothalamus, ventral hippocampus, basal forebrain, spinal cord, pancreas and pituitary; cited from earlier work
[2] = test system: human GALR3; assay: Specific binding of ^125I-galanin radioligands to membranes of COS-7 cells transfected with GALR3 clones, as a function of membrane protein
Method: Mammalian COS-7 cells were transfected by electroporation. COS-7 cells (1×10^7) were suspended in 0.85 ml of Ringers' buffer and […] of the GALR3-2 or GALR3—3 expression plasmid was added to a 0.4 mm electroporation cuvette (Bio-Rad, Hercules, Calif.). Current was applied ([…], 260 V) using a Bio-Rad Electroporator device and the cells were transferred to a T-180 flask (Corning). Expression was allowed to proceed for 72 hrs.
Membranes were prepared from transfected cells following dissociation in enzyme-free dissociation solution (Specialty Media, Lavallette, N.J.) by disruption in a Dounce homogenizer in ice-cold membrane buffer (10 mM Tris, pH 7.4, 10 mM PMSF, […], and […]). After a low speed (1100×g for 10 min. at 4° C.) and a high speed centrifugation (38,700×g for 15 min. at 4° C.), membranes were resuspended in buffer and protein concentration determined (Bio-Rad assay kit). […] Reactions were initiated by the addition of membranes and the incubation was allowed to proceed at room temperature for 1 hour. […] Titration of membrane protein from 1 to 50 μg was conducted. […] Incubations were terminated by rapid filtration through GF/C filters which had been presoaked with 0.1% polyethylamine using a TOMTEC (Orange, Conn.) cell harvester. The results were analyzed using the Prism software package (GraphPad, San Diego, Calif.).

| Substance | pKd [1] | Specific binding of radioligand ([2]; Clone GALR3-3, membrane protein 5 μg) [cpm] | Specific binding of radioligand ([2]; Clone GALR3-3, membrane protein 10 μg) [cpm] | Specific binding of radioligand ([2]; Clone GALR3-3, membrane protein 20 μg) [cpm] | Specific binding of radioligand ([2]; Clone GALR3-3, membrane protein 50 μg) [cpm] |
| --- | --- | --- | --- | --- | --- |
| ^125I-galanin | ~9.00 | – | – | – | – |
| ^125I-human galanin | – | 211 | 407 | 886 | 2061 |
